The subject of this assay is CT26 syngenic subcutaneous colon cancer model. The experiment in a line: Antitumor activity of MBS8 micelles in combination with doxorubicin or doxil in the CT26 model. Type of assay: in vivo, mice. Conditions: mono chemotherapy 4 mg/kg i.v. q4d x3. How it is done:
Randomisation of mice and treatment started when tumors reached an average volume of 100 mm^3 (Day 0). […] All drugs were administered by intravenous bolus. Doxorubicin or doxil were given q4d, total of 3 injections. […] Growth of tumors was measured twice a week.

As to `COc1cccc2c1C(=O)c1c(O)c3c(c(O)c1C2=O)C[C@@](O)(C(=O)CO)C[C@@H]3O[C@H]1C[C@H](N)[C@H](O)[C@H](C)O1` [doxorubicin], the complete responders result is “no complete responders”.

The record behind these values is patent publication US20240197759A1, “IMMUNE STIMULATING NANOPARTICLE COMPOSITION” (DANMARKS TEKNISKE UNIVERSITET, priority 2021, published 2024).
